Assays:
Cytochrome P450 2C19 = Cytochrome P450 2C19 (Homo sapiens, UniProt P33261); settings: bti-tn-5b1-4; further: in other assays of this panel Not Active means under 50% inhibition at 10 µM
[1] = DRUGMATRIX: Sodium/nucleoside co-transporter radioligand binding (ligand: nitrobenzylthioinosine); assay type: cell membranes, Cavia porcellus, Dunkin-Hartley, Cerebral cortex, Membrane; settings: Not Active = under 50% inhibition at 10 µM
[2] = DRUGMATRIX: Atrial Natriuretic Factor (ANF) radioligand binding (ligand: [125I] ANF (rat)); assay type: cell membranes, Cavia porcellus, Dunkin-Hartley, Adrenal gland, Membrane; settings: Not Active = under 50% inhibition at 10 µM
[3] = DRUGMATRIX: beta-Lactamase enzyme inhibition (substrate: Nitrocefin); set-up: species or system Bacillus cereus; settings: Not Active = under 50% inhibition at 10 µM
[4] = DRUGMATRIX: Serotonin (5-Hydroxytryptamine) 5-HT3 radioligand binding (ligand: [3H] GR-65630); assay type: cell membranes, Membrane; settings: hek293; Not Active = under 50% inhibition at 10 µM
[5] = DRUGMATRIX: GABAA, Muscimol, Central radioligand binding (ligand: [3H] Muscimol); assay type: cell membranes, Rattus norvegicus, Wistar, Brain, Membrane; settings: Not Active = under 50% inhibition at 10 µM
[6] = DRUGMATRIX: Glutamate, Kainate radioligand binding (ligand: [3H] Kainic acid); assay type: cell membranes, Rattus norvegicus, Wistar, Brain, Membrane; settings: Not Active = under 50% inhibition at 10 µM
[7] = DRUGMATRIX: Nicotinic Acetylcholine radioligand binding (ligand: [125I] Epibatidine); assay type: cell membranes, Membrane; settings: imr-32; Not Active = under 50% inhibition at 10 µM
[8] = DRUGMATRIX: Phosphodiesterase PDE4 enzyme inhibition (substrate: [3H]cAMP + cAMP); settings: u-937; Not Active = under 50% inhibition at 10 µM

Chain of Cytochrome P450 2C19 (P33261 whole entry): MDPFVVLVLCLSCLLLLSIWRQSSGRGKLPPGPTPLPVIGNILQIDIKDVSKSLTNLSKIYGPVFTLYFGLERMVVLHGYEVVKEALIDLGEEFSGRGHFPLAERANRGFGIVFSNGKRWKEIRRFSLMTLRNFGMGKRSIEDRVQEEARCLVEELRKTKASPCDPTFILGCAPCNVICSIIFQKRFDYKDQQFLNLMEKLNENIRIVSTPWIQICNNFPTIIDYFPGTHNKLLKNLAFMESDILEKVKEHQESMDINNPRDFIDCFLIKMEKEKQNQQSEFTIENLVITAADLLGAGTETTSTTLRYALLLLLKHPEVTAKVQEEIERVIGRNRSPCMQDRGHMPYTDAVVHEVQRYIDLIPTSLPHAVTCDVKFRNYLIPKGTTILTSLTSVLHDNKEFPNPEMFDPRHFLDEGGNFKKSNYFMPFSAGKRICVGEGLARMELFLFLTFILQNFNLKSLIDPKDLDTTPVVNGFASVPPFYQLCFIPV

Molecule | IC50 (Cytochrome P450 2C19) | Ki (Cytochrome P450 2C19) | IC50 [1] | Ki [1] | IC50 [2] | Ki [2] | IC50 [3] | Ki [3] | IC50 [4] | Ki [4] | IC50 [5] | Ki [5] | IC50 [6] | Ki [6] | IC50 [7] | Ki [7] | IC50 [8] | Ki [8] | IC50 ([1]; read-out: IC50) | Ki ([1]; read-out: Ki)
CC(C)NC[C@H](O)COc1cccc2ccccc12 [LEVOPROPRANOLOL] | Not Active | Not Active |  |  |  |  |  |  |  |  |  |  |  |  |  |  |  |  |  | 
CN1[C@@H]2CC[C@H]1C[C@@H](OC(c1ccccc1)c1ccccc1)C2 [BENZTROPINE] | Not Active | Not Active |  |  |  |  |  |  |  |  |  |  |  |  |  |  |  |  |  | 
Cc1ccc(C(=O)c2ccc(CC(=O)O)n2C)cc1 [TOLMETIN] | Not Active | Not Active | Not Active | Not Active | Not Active | Not Active | Not Active | Not Active | Not Active | Not Active | Not Active | Not Active | Not Active | Not Active | Not Active | Not Active | Not Active | Not Active |  | 
CN1CCN(C2=Nc3cc(Cl)ccc3Nc3ccccc32)CC1 [CLOZAPINE] | Not Active | Not Active |  |  |  |  |  |  |  |  |  |  |  |  |  |  |  |  |  | 
C[C@]12C=CC(=O)C=C1CC[C@@H]1[C@@H]2C(=O)C[C@@]2(C)[C@H]1CC[C@]2(O)C(=O)CO [PREDNISONE] |  |  |  |  | Not Active | Not Active | Not Active | Not Active | Not Active | Not Active | Not Active | Not Active | Not Active | Not Active | Not Active | Not Active | Not Active | Not Active | 4.95 µM | 1.69 µM
CC(C)NC[C@@H](O)COc1cccc2ccccc12 [DEXPROPRANOLOL] | Not Active | Not Active |  |  |  |  |  |  |  |  |  |  |  |  |  |  |  |  |  | 
CN1CCN(CCCN2c3ccccc3Sc3ccc(C(F)(F)F)cc32)CC1 [TRIFLUOPERAZINE] |  |  | Not Active | Not Active | Not Active | Not Active | Not Active | Not Active | Not Active | Not Active | Not Active | Not Active | Not Active | Not Active | Not Active | Not Active | Not Active | Not Active |  | 
O=C(O)COc1ccc(C(=O)c2cccs2)c(Cl)c1Cl | Not Active | Not Active | Not Active | Not Active | Not Active | Not Active | Not Active | Not Active | Not Active | Not Active | Not Active | Not Active | Not Active | Not Active | Not Active | Not Active | Not Active | Not Active |  | 
C[N+](C)(C)CCOC(=O)CCC(=O)OCC[N+](C)(C)C.[Cl-].[Cl-] [SUCCINYLCHOLINE CHLORIDE] |  |  | Not Active | Not Active | Not Active | Not Active | Not Active | Not Active | Not Active | Not Active | Not Active | Not Active | Not Active | Not Active | Not Active | Not Active | Not Active | Not Active |  | 
TRANSPLATIN | Not Active | Not Active | Not Active | Not Active | Not Active | Not Active | Not Active | Not Active | Not Active | Not Active | Not Active | Not Active | Not Active | Not Active | Not Active | Not Active | Not Active | Not Active |  | 
C[C@@](Cc1ccc(O)c(O)c1)(NN)C(=O)O.O [CARBIDOPA] | Not Active | Not Active | Not Active | Not Active | Not Active | Not Active | Not Active | Not Active | Not Active | Not Active | Not Active | Not Active | Not Active | Not Active | Not Active | Not Active | Not Active | Not Active |  | 
CN(C)C(=O)C(CCN1CCC(O)(c2ccc(Cl)cc2)CC1)(c1ccccc1)c1ccccc1 [LOPERAMIDE] | Not Active | Not Active |  |  |  |  |  |  |  |  |  |  |  |  |  |  |  |  |  | 

From ChEMBL document CHEMBL1909046, “DrugMatrix in vitro pharmacology data”
